Publication PMC5146859, “Phase 1/2 study of pacritinib, a next generation JAK2/FLT3 inhibitor, in myelofibrosis or other myeloid malignancies” (Journal of Hematology & Oncology, 2016)
Marks after values point to notes of the source that are not given here.

Tests used:
patients with MF [1] = test: Phase 2 hematologic parameters and transfusions; type: in vivo, human
Protocol: At screening/baseline, patients underwent a medical history, physical examination, vital sign assessment, ECOG PS assessment, electrocardiogram, and assessment of hematologic parameters and blood chemistry. Hematology/blood chemistry, physical examinations, and vital sign assessments were performed throughout treatment. Toxicity was assessed using the National Cancer Institute Common Terminology Criteria for Adverse Events (NCIC-CTCAE), version 3.0, with relationship to treatment assigned by the investigator and were recorded from the first dose of pacritinib until 30 days after the last dose. Bone marrow biopsy and/or aspirate samples were drawn at baseline, on day 1 of cycle 4 and cycle 10, as clinically indicated, and at the termination visit. Disease response and progression were determined using the relevant International Working Group (IWG) criteria.

patients with MF [2] = test: Phase 2 MF Quality of Life and Symptoms Assessment Tool; type: in vivo, human; details: phase 2, 400 mg QD
Protocol: In phase 2, abdominal MRI to assess spleen and liver volume was performed on day 1 of cycles 1, 4, and 7 and then day 1 of every third cycle through cycle 25. Spleen size (length) was also assessed by manual palpation with each scheduled physical examination. The phase 2 study protocol was amended in September 2009 to include the MF Quality of Life and Symptoms Assessment Tool. […] The instrument was administered pre-dose on day 1 of cycles 1, 2, 4, 7, and 10 and then on day 1 of every third cycle through cycle 25.
The primary endpoint of the phase 2 component was the proportion of the efficacy population who achieved a ≥35% reduction in spleen volume from baseline at week 24, as measured by MRI. Spleen response rate was also assessed in terms of a ≥35% reduction in spleen volume by MRI up to week 24 and end of treatment and as a ≥50% reduction in spleen length by physical examination up to week 24 and end of treatment. Duration of response was not analyzed due to limitations in the proportion of responders. An exploratory endpoint was the proportion of patients with a ≥50% reduction in MF Quality of Life and Symptoms Assessment Tool at week 24 compared with baseline.

[3] = phase 2, during the study, n = 31

## C1=C/COCc2cc(ccc2OCCN2CCCC2)Nc2nccc(n2)-c2cccc(c2)COC/1 [pacritinib, 11-(2-pyrrolidin-1-yl-ethoxy)-14,19-dioxa-5,7,26-triaza-tetracyclo[19.3.1.1(2,6). 1(8,12)]heptacosa-1(25),2(26),3,5,8,10,12(27),16,21,23-decaene]
Patients with MF [1]; phase 2, 16 transfused patients
  RBC transfusions, median: 11 units
Patients with MF [1]; phase 2, Termination
  Hematocrit, Median % change from baseline: 0.48%
  Hemoglobin, Median % change from baseline: 5.0%
  Leukocytes, Median % change from baseline: 15.49%
  Lymphocytes, Median % change from baseline: 39.87%
  Neutrophils, Median % change from baseline: -9.19%
  Platelets, Median % change from baseline: -5.4%
  Red blood cells, Median % change from baseline: 0.18%
Patients with MF [1]; phase 2, Week 2
  Hematocrit, Median % change from baseline: 2.92%
  Hemoglobin, Median % change from baseline: 5.3%
  Leukocytes, Median % change from baseline: -5.93%
  Lymphocytes, Median % change from baseline: 26.93%
  Neutrophils, Median % change from baseline: -16.44%
  Platelets, Median % change from baseline: -1.6%
  Red blood cells, Median % change from baseline: 2.23%
Patients with MF [1]; phase 2, Week 4
  Hematocrit, Median % change from baseline: 0.00%
  Hemoglobin, Median % change from baseline: 2.2%
  Leukocytes, Median % change from baseline: -26.77%
  Lymphocytes, Median % change from baseline: -6.84%
  Neutrophils, Median % change from baseline: -26.43%
  Platelets, Median % change from baseline: -20.3%
  Red blood cells, Median % change from baseline: 1.41%
Patients with MF [1]; phase 2, Week 6
  Hematocrit, Median % change from baseline: 0.64%
  Hemoglobin, Median % change from baseline: 9.1%
  Leukocytes, Median % change from baseline: -5.58%
  Lymphocytes, Median % change from baseline: 31.7%
  Neutrophils, Median % change from baseline: -9.32%
  Platelets, Median % change from baseline: -3.6%
  Red blood cells, Median % change from baseline: -1.65%
Patients with MF [1]; phase 2, Week 8
  Hematocrit, Median % change from baseline: 2.01%
  Hemoglobin, Median % change from baseline: 4.5%
  Leukocytes, Median % change from baseline: -5.50%
  Lymphocytes, Median % change from baseline: 12.65%
  Neutrophils, Median % change from baseline: -19.76%
  Platelets, Median % change from baseline: -4.5%
  Red blood cells, Median % change from baseline: 2.14%
Patients with MF [1]; phase 2, Week 10
  Hematocrit, Median % change from baseline: -3.57%
  Hemoglobin, Median % change from baseline: 8.2%
  Leukocytes, Median % change from baseline: 7.90%
  Lymphocytes, Median % change from baseline: 52.34%
  Platelets, Median % change from baseline: -3.1%
  Red blood cells, Median % change from baseline: -1.37%
Patients with MF [1]; phase 2, Week 10, n = 19
  Neutrophils, Median % change from baseline: -1.44^b %
Patients with MF [1]; phase 2, Week 12
  Hematocrit, Median % change from baseline: -3.31%
  Hemoglobin, Median % change from baseline: -0.5%
  Leukocytes, Median % change from baseline: -21.83%
  Lymphocytes, Median % change from baseline: 20.88%
  Neutrophils, Median % change from baseline: -31.39%
  Platelets, Median % change from baseline: -7.7%
  Red blood cells, Median % change from baseline: -1.81%
Patients with MF [1]; phase 2, Week 16
  Hematocrit, Median % change from baseline: 3.11%
  Hemoglobin, Median % change from baseline: 8.6%
  Leukocytes, Median % change from baseline: -15.09%
  Lymphocytes, Median % change from baseline: 22.22%
  Neutrophils, Median % change from baseline: -33.04%
  Platelets, Median % change from baseline: -20.1%
  Red blood cells, Median % change from baseline: 6.16%
Patients with MF [1]; phase 2, Week 20
  Hematocrit, Median % change from baseline: -1.30%
  Hemoglobin, Median % change from baseline: 5.8%
  Leukocytes, Median % change from baseline: -25.83%
  Lymphocytes, Median % change from baseline: 37.07%
  Neutrophils, Median % change from baseline: -32.93%
  Platelets, Median % change from baseline: -11.7%
  Red blood cells, Median % change from baseline: -0.30%
Patients with MF [1]; phase 2, Week 24
  Hematocrit, Median % change from baseline: 3.01%
  Hemoglobin, Median % change from baseline: 7.3%
  Leukocytes, Median % change from baseline: -30.34%
  Lymphocytes, Median % change from baseline: 44.14%
  Neutrophils, Median % change from baseline: -43.24%
  Platelets, Median % change from baseline: -23.7%
  Red blood cells, Median % change from baseline: 2.46%
Patients with MF [1]; phase 2, Week 36
  Hematocrit, Median % change from baseline: -2.91%
  Hemoglobin, Median % change from baseline: -0.4%
  Leukocytes, Median % change from baseline: -18.32%
  Lymphocytes, Median % change from baseline: 58.89%
  Neutrophils, Median % change from baseline: -33.96%
  Platelets, Median % change from baseline: -23.4%
  Red blood cells, Median % change from baseline: -3.15%
Patients with MF [1]; phase 2, Week 48
  Hematocrit, Median % change from baseline: -2.39%
  Hemoglobin, Median % change from baseline: 10.1%
  Leukocytes, Median % change from baseline: -5.13%
  Lymphocytes, Median % change from baseline: 61.70%
  Neutrophils, Median % change from baseline: -28.84%
  Platelets, Median % change from baseline: -16.3%
  Red blood cells, Median % change from baseline: -3.87%
Patients with MF [1]; phase 2, Week 60
  Hematocrit, Median % change from baseline: 3.70%
  Hemoglobin, Median % change from baseline: 4.7%
  Leukocytes, Median % change from baseline: -28.21%
  Lymphocytes, Median % change from baseline: 40.43%
  Neutrophils, Median % change from baseline: -40.17%
  Platelets, Median % change from baseline: -31.3%
  Red blood cells, Median % change from baseline: 1.48%
Patients with MF [1]; [3]
  Patients who received RBC transfusions: 51.6%
  Patients who received platelet transfusions: 9.7%
Patients with MF [1]; phase 2, three transfused patients
  Platelet transfusions, median: 3 units
Patients with MF [1]; phase 2, through week 60
  Median neutrophil count, span over visits: 3.83 to 6.00 × 10^9/L
  Median platelet count, span over visits: 89 to 155 × 10^9/L
Patients with MF [1]; phase 2, week 24 (1/20)
  Patients with hemoglobin levels <8 g/L: 5.0%
Patients with MF [1]; phase 2, week 24 (2/20)
  Patients with leukocyte counts >25 × 10^9/L: 10.0%
  Patients with platelet counts <50 × 10^9/L: 10.0%
Patients with MF [1]; phase 2, week 24 (10/20)
  Patients with hemoglobin levels <10 g/L: 50.0%
  Patients with platelet counts <100 × 10^9/L: 50.0%
Patients with MF [2]
  Individual symptoms and overall quality of life score: Improvement was seen in each of the individual symptoms
Patients with MF [2]; N = 11
  Bone pain, Mean percent change from baseline at Week 24 (SD): -51.6 (43.04) %
  Night sweats, Mean percent change from baseline at Week 24 (SD): -31.3 (85.45) %
Patients with MF [2]; N = 12
  Itching (pruritus), Mean percent change from baseline at Week 24 (SD): -62.6 (45.35) %
Patients with MF [2]; N = 16
  Abdominal pain, Mean percent change from baseline at Week 24 (SD): -54.2 (58.14) %
  Overall quality of life, Mean percent change from baseline at Week 24 (SD): -38.1 (49.50) %
Patients with MF [2]; N = 17
  Early satiety, Mean percent change from baseline at Week 24 (SD): -42.2 (37.53) %
Patients with MF [2]; N = 18
  Fatigue – worst, Mean percent change from baseline at Week 24 (SD): -12.5 (63.55) %
  Total symptom score, Mean percent change from baseline at Week 24 (SD): -27.5 (39.01) %
Patients with MF [2]; week 24 (7/18)
  Evaluable patients with ≥50% reduction in MF Quality of Life and Symptom Assessment total score: 38.9%
